For test [1], the system named is healthy human skin transplanted onto beige-SCID mice. The experiment in a line: Humanized psoriasis model: healthy human skin xenotransplants on beige-SCID mice injected with psoriatic patients' PBMCs. Type of test: in vivo, mouse. The note with it: for Healthy Skin (number of grafts) / Partial Psoriasiform With Tendency Towards Healthy skin (number of grafts) / Psoriasiform Skin (number of affected grafts, histological evaluation) / Total No. of Healthy Grafts (%): 28 days after start of treatment; for Epidermal thickness of grafts, Mean: mean of 9-10 mice, PBS mean 682; for proliferation index (% Ki-67 positive cells) in the xenografted skin: vs vehicle treated group. The text has this: In this model, psoriasis is induced in xenotransplants of healthy human skin transplanted onto beige severe combined immunodeficiency (SCID) mice followed by intradermal (i.d.) injection of IL-2 enriched Peripheral Blood Mononuclear Cells (PBMCs) isolated from blood of psoriasis patients (Nickoloff, 1995; Wrone-Smith, 1996 Gilhar et al., 2002, 2006, 2011). The activity of these compounds was compared to that of Enbrel, a TNF inhibitor which is an approved biological drug for treatment of psoriasis. As a control for model robustness, we used dexamethasone, a steroid with suppressive effects on inflammatory cytokines and chemokines such as TNF-alpha and interferon-gamma which cause severe psoriasis. All treatments were administered intradermally, except for dexamethasone which was given topically.
Study Protocol: A) Healthy human skin pieces with a width of 0.4 mm and surface area of 1.5×1.5 cm were provided from residual skin of routine plastic surgery procedures from the Plastic Surgery Department of the Rambam Medical Center, Israel. In addition, 20 mL blood samples were taken from psoriatic patients. B) Seventy (70) beige-severe combined immunodeficient mice (SCID) (weight˜20-25 g) were included in this study. Normal healthy human donor skin was transplanted onto the beige-SCID mice as previously described (Nickoloff et al., 1995; Wrone-Smith, 1996; Gilhar et al., 2002, 2006, 2011; Kalish et al., 2009) and the mice were divided into 7 groups. C) Peripheral Blood Mononuclear Cells (PBMCs) isolated from psoriatic patients' blood were cultured in the presence of IL-2 [Prospec, 100 U/mL of RPMI 1640 media, 10% human AB serum (Sigma, St. Louis, Mo.), 1% glutamine, 1% antibiotics (media components; Biological Industries, Kibbutz Beit Haemeck, Israel)] for 14 days, as previously described (Gilhar et al, 2002). D) Four weeks following engraftment, each mouse was injected intra-dermally (i.d.) into the grafted skin lesion, with 1×10^7 activated allogeneic enriched PBMCs from psoriatic patients (FIG. 20). Cells from different psoriasis patients were equally distributed between treatment groups so that each patient is represented in each treatment group. E) On the day of PBMCs injection into the skin grafts, mice were divided randomly into treatment groups (n=9-10 mice per group) and administration of all drugs started (FIG. 20). All tested compounds including the vehicle were given intradermally (intralesional), three times a week, except for dexamethasone which was given topically for 14 consecutive days (Table 3).
F) Twenty eight days after starting the injections and treatment, skin was harvested (FIG. 20). Grafts were analyzed for the following psoriatic parameters by histology: epidermal thickening (acanthosis), suprapapillary epidermal thinning (papillomatosis), hyperkeratosis, parakeratosis, orthokeratosis, agranulosis-hypogranulosis, appearance of neutrophils in the upper spinous layer or in the corneal cell layer—Munro microabscess, regular elongation of rete ridges, angiogenesis, edema and dilated tortuous blood vessels in the dermal papilla and mononuclear cell infiltrate in the papillary dermis. Epidermal thickness was measured as detailed below, and HLA-DR, ICAM-1, Ki-67 and immune infiltrates (anti-CD3 stain) were evaluated by immunohistochemistry (IHC).
The entire skin graft was excised and placed in 10% formal saline overnight. Then, the specimens were place in 70% ethanol and were embedded according to the standard H&E protocol. Histological assessment of the skin grafts was performed by light microscopy and evaluated by two blinded observers [the second observer evaluated random slides (about 25% of all slides) to compare the data obtained by the first observer. […] Epidermal thickness was determined with an ocular micrometer at a minimum of 50 points along the epidermis selected to represent points of maximal and minimal thickness.
Representative grafts were allocated for IHC analysis. […]

For test [2], the system named is co-cultures of TcK and macrophages. The experiment in a line: TcK : macrophage co-culture, cytokine secretion. It counts as cell-based, human. The protocol: • Purified CD4+ cells (2×10^6 cells/ml) are activated for 6 days in complete medium containing IL-15 (100 ng/ml), IL-6 (100 ng/ml) and TNFα (25 ng/ml).
After 6 days in culture, T cells are washed 3 times in complete medium and counted
TcKs are added to macrophage culture following removal of existing culture media at […] (5×10^4 cells/well/CD4+ T cells plus 2×10^5 cells/well CD14^+ Macrophages). C1ORF32 ECD-Fc (SEQ ID NO:43) or Control IgG are added at 1, 3, 10, 30 μg/ml. For additional controls co-cultures are added with vehicle or with medium only (Wennink et al., 2012).
After 24 hrs of culture, cytokines (IL-10, IFN-α, IL-6, IL-12, CCL5, IL-13, IL-15, IL-17, CCL3, GM-CSF, IFNγ, TNFα, IL-1RA, IL-7, IL-1B, eotaxin, IL-2 IL-4 and IL-2R) are analyzed using ELISA and/or Luminex
Co-culture of TcK with autologeuos ex-vivo differentiated macrophages mimics one of the crucial pathways mediating synovial macrophage activation in RA thus serving as a translational tool for evaluating the therapeutic potential of drug candidates. Therefore the effect of C1ORF32 ECD-Fc (SEQ ID NO:43) was tested on the secretion of a range of pro-inflammatory and anti-inflammatory cytokines in such co-cultures. Two studies were carried out, one in which buffy coats from healthy volunteers was used and another study in which the responses of RA patients blood cells responses were compared to that of healthy voluntiers in which blood was used rather than buffy coats.

The subject of test [3] is PBMCs from MS patients. Kind of test: MS patients' PBMCs: proliferation and cytokine secretion. It counts as cell-based, human. The method, then: PBMCs were taken from eight MS patients with diagnosed relapsing-remitting disease who have experienced a relapse 1-2 days prior to blood drawing.
PBMCs were plated in a flat-bottom 96-well plate at 1e6 cells/well. The cells were cultured in the presence of anti-CD3 (0.5 ug/ml), MS-specific peptide MBP85-96 (10 ug/ml), or tetanus toxoid peptide TT830-843 (10 ug/ml). C1ORF32 ECD-Fc (SEQ ID NO: 43) or Control Ig were added to the cuture at the indicated concentrations. Two replicate plates were set to study for the effect of C1ORF32 ECD-Fc (SEQ ID NO: 43) on proliferation and on pro-inflammatory and anti-inflammatory cytokines secretion. To test for proliferation, the cultures were pulsed on day +1 of culture with 1 uCi of tritiated thymidine and then harvested 3 days later on day +4 of culture. For cytokine analysis, super natantes from a replicate cultures were collected on day +4 of culture and tested using Millipore multiplex assay.

The mark [4] stands for this setting: healthy volunteers, 24 hrs co-culture.
The mark [5] stands for this setting: PBMCs activated ex-vivo with MBP85-96.

Values joined by “and” are separate entries in the source; they are usually repeats but may differ in a detail not shown here. Identical values can stand only once.

In the case of `C[C@@H]1C[C@H]2[C@@H]3CCC4=CC(=O)C=C[C@]4(C)[C@@]3(F)[C@@H](O)C[C@]2(C)[C@@]1(O)C(=O)CO` [dexamethasone], in test [1], the “Healthy Skin (number of grafts)” value is 7/10. The “Partial Psoriasiform With Tendency Towards Healthy skin (number of grafts)” value in test [1] is on record as 1; in test [1] (listed as Dexa), 1/10. Further, the “Psoriasiform Skin (number of affected grafts, histological evaluation)” value in test [1] was 2 and 2/10; in test [1] (listed as Dexa), 2/10. Further, the “Total No. of Healthy Grafts (%)” value in test [1] is reported as 70%. The “Epidermal thickness of graft” value in test [1] (Source of graft (Patient)) was determined as 204 μm; in test [1] (Source of graft (Patient) A), 359 μm; in test [1] (Source of graft (Patient) B), 596 μm; in test [1] (Source of graft (Patient) C) it was 183 μm; in test [1] (Source of graft (Patient) D), 377 μm; in test [1] (Source of graft (Patient) E), 391 μm. The “Epidermal thickness of graft” value in test [1] (Source of graft (Patient) G1) was 266 μm; in test [1] (Source of graft (Patient) H) it was 262 μm; in test [1] (Source of graft (Patient) K), 289 μm; in test [1] (Source of graft (Patient) P) it was 232 μm. Also, in test [1], the “Epidermal thickness of grafts, Mean” value is reported as 315 μm.
Consider “C1ORF32 ECD-Fc (SEQ ID NO: 43): fusion protein of human C1ORF32 ECD fused to human immunoglobulin Fc (human-human fusion protein)”, for which the TNFa secretion entry in test [2] (RA patients' (n=2) and healthy volunteers blood (n=1) samples) is reported as “marked inhibition”. The “IL-10, IL-15, IFNa, IL-7 secretion levels” value in test [2] (setting [4]) was “No effect”. Moreover, the “secretion of IFNg, IL-1RA, IL-17, IL-12, IL-13, IL-6 and IL-2R” value in test [2] (setting [4]) is reported as “to a lesser extent also downregulated”. Also, the “secretion of TNFa, CCL5, CCL3, GM-CSF, and IL-5” value in test [2] (setting [4]) is “inhibited”. In test [3] (setting [5]), the “IFNg, IL-17, TNFa secretion” value is “inhibition”. For the same molecule, in test [3] (setting [5]), the “IL-4, IL-10, TGFβ and IL-6 secretion” value was “increase”. The cell proliferation result in test [3] (setting [5]) is “inhibition of cells proliferation”. Further, the “proliferation, or secretion of IFNg, IL-17, and TNFa” value in test [3] (absence of activation) is reported as “no effect”. Moreover, the “IL-10, IL-4, TGFβ and IL-6” value in test [3] (absence of activation, in some of the donors) is “elevation”. For the same molecule, the “Healthy Skin (number of grafts)” value in test [1] is given as 5/9. Also, in test [1], the “Psoriasiform Skin (number of affected grafts, histological evaluation)” value is reported as 4/9. The “Total No. of Healthy Grafts (%)” value in test [1] is 55.5% and 55%. Also, the “expression of HLA-DR, ICAM-1 and Ki-67 (IHC)” value in test [1] (IHC of representative grafts) is “decreased expression”. Also, the “infiltration of T cells (CD3 positive cells)” value in test [1] (IHC, vs PBS treated group) is recorded as “decreased infiltration of T cells”. Moreover, the “proliferation index (% Ki-67 positive cells) in the xenografted skin” value in test [1] (IHC) is reported as “trend towards decrease in proliferation index”; in test [1] (IHC, listed as C1ORF ECD-Fc (SEQ ID NO:43)), “most pronounced reduction”. The “Epidermal thickness of graft” value is listed as 904 μm in test [1] (Source of graft (Patient) A); 397 μm in test [1] (Source of graft (Patient) B); 603 μm in test [1] (Source of graft (Patient) C); 441 μm in test [1] (Source of graft (Patient) D); 335 μm in test [1] (Source of graft (Patient) E); 598 μm in test [1] (Source of graft (Patient) G1). Besides, the “Epidermal thickness of graft” value in test [1] (Source of graft (Patient) G2) was found to be 775 μm; in test [1] (Source of graft (Patient) H) it was 253 μm; in test [1] (Source of graft (Patient) K), 268 μm. Further, in test [1], the “Epidermal thickness of grafts, Mean” value is listed as 508 μm. Moreover, the “epidermal thickness compared with the vehicle-treated group” value in test [1] (one-tailed t-Test, listed as C1ORF ECD-Fc (SEQ ID NO:43)) is recorded as “significant reduction in epidermal thickness”.

Values taken from US20170275344A1, “POLYPEPTIDES AND USES THEREOF AS A DRUG FOR TREATMENT OF AUTOIMMUNE DISORDERS” (Compugen Ltd., priority 2014, published 2017).
